Test results reported in patent publication US12364668B2, “Treatment of opioid use disorder, opioid withdrawal symptoms, and chronic pain” (THE REGENTS OF THE UNIVERSITY OF CALIFORNIA, priority 2017, dated 2025).

Key:
[1] = biological target: Cytochrome P450 3A4 (CYP 3A4) (Homo sapiens, UniProt P08684); settings: in vitro study (Stout and Cimino 2014); cited from earlier work
[2] = rats (Graham and Li, 1973); cited from earlier work
[3] = test system: Chronic Constriction Injury model of chronic neuropathic pain; assay: Von Frey pain threshold in the Chronic Constriction Injury (sciatic nerve ligation) model; settings: CCI rats
Source text: Male Sprague Dawley rats underwent baseline measurement of pain threshold via Von Frey testing according to the study schema in FIG. 4. The following day, rats underwent surgical ligation of the sciatic nerve using the Chronic Constriction Injury model of chronic neuropathic pain. After 7 days to allow the development of chronic neuropathic pain, rats underwent repeat Von Frey testing to determine pain threshold and started oral treatment with CBD or saline (Table 2). After 7 days of CBD or saline, rats underwent pre-dosing pain threshold determination via Von Frey testing and then received either standard dose BUP, low dose BUP, CBD alone or low dose BUP plus CBD followed by repeat post-dose pain threshold determination via Von Frey testing (Table 3).

Sequence of Cytochrome P450 3A4 (CYP 3A4) (P08684 whole entry, species assumed): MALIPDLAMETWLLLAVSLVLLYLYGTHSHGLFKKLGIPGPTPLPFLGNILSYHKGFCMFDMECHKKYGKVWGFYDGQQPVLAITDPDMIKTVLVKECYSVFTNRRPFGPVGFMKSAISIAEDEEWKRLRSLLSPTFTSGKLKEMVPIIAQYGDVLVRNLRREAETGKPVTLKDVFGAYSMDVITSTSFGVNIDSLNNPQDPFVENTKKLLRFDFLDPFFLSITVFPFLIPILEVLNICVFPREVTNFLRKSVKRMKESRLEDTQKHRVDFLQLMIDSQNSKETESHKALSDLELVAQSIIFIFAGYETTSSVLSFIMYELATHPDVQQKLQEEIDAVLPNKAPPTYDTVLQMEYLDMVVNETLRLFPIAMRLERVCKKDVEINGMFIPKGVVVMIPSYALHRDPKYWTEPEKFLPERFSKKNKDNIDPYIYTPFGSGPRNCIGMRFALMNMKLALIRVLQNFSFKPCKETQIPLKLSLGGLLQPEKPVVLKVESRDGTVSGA

C=C(C)[C@@H]1CCC(C)=C[C@H]1c1c(O)cc(CCCCC)cc1O [CBD, cannabidiol]
Inhibition of CYP 3A4 [1]: inhibits | Effect on respiratory rate [2]: did not reduce | Mean pain threshold (g in Von Frey Testing), Day 14-1 hour Post Dose ([3]; CBD alone 7 mg/kg PO days 7-14, saline IV on day 14): 5.25 g | Pain threshold on day 14 compared to no BUP (Group 1) ([3]; CBD alone 7 mg/kg PO days 7-14): did not significantly increase | Mean pain threshold (g in Von Frey Testing), Day 14 Pre-Dose ([3]; CBD alone group, after 7 days of CBD 7 mg/kg PO, before day 14 dosing): 5.50 g
